Assay results from patent EP0499648A1, “Enzymatically debranched starches as tablet excipients” (National Starch and Chemical Investment Holding Corporation, priority 1991, dated 1992).

What was measured:
[1] = Visual observation of direct compression APAP tablets (structural integrity, capping, splitting, surface); type: physicochemical; settings: direct compression APAP formula
Procedure: (§1) Direct compression tabletting in a laboratory scale tablet press (Stokes, Model B-2, 16 station rotary tablet press with 3/8'' standard concave punches, obtained from Stokes Co., Warminster, PA) was used to prepare tablets from the following formula: […]
(§2) Tablets weighing from 360-460 mg were formed in the tablet press at pressure settings from A (low) to I (high) by adjusting the weight setting for each pressure setting. Compressibility is expressed as a profile obtained by increasing the pressure setting until the accompanying increases in the tablet hardness measurements leveled off. Tablet hardness was determined on a hydraulic tablet hardness tester (Delamar, Model PT 1000, obtained from VanKel Industries, Edison, New Jersey) in units of Kg/cm².
The starch debranching and tabletting methods of Example 1 were employed to make direct compression tablets according to the formula of Example 1.

[2] = Direct compression tabletting of APAP formula: compression profile (tablet hardness vs. press pressure setting); type: physicochemical; settings: 64% APAP, 34.75% binder
Procedure: as §1
All ingredients except the binder were dry blended, screened through a 10 mesh sieve and blended with the binder.
as §2

SMILES: CC(=O)Nc1ccc(O)cc1 [100% APAP, Acetaminophen]
- compressibility and structural integrity of tablets (visual observation) [1]: a. Not compressible.
- compressibility and structural integrity of tablets (visual observation) ([1]; listed as acetaminophen (APAP)): does not compress to form a tablet
- Tablet Hardness ([2]; machine position A (low pressure setting)): 0 Kg/cm²
- Tablet Hardness ([2]; machine position B): 0 Kg/cm²
- Tablet Hardness ([2]; machine position C): 0 Kg/cm²
- Tablet Hardness ([2]; machine position D): 0 Kg/cm²
- Tablet Hardness ([2]; machine position E): 0 Kg/cm²
- Tablet Hardness ([2]; machine position F): 0 Kg/cm²
- Tablet Hardness ([2]; machine position G): 0 Kg/cm²
- Tablet Hardness ([2]; machine position H): 0 Kg/cm²
- Tablet Hardness ([2]; machine position I (high pressure setting)): 0 Kg/cm²
